Biological target: Human immunodeficiency virus type 1 protease (Human immunodeficiency virus 1, UniProt Q72874)
Assay: Inhibitory concentration required to inhibit hydrolytic activity of recombinant HIV-1 PR (human immunodeficiency virus protease)

Compound | IC50
[N-]=[N+]=NC1C(N)C(OCc2ccccc2)OC(CO)C1OCc1ccccc1 (stereo not drawn) | > 1 µM
NC1C(OCc2ccccc2)OC(CO)C(OCc2ccccc2)C1N (stereo not drawn) | 205 µM
NC1C(OCc2ccccc2)OC(COC(=O)Nc2ccccc2)C(OCc2ccccc2)C1N (stereo not drawn) | 28 µM

— ChEMBL document CHEMBL1131680, “Structure-based design of diaminopyranosides as a novel inhibitor core unit of HIV proteases” (Bioorg Med Chem Lett, 1999)
